# Results reported in patent US9150577B2, “Heterocyclic compounds containing an indole core” (Boehringer Ingelheim International GmbH, priority 2009, dated 2015).
# Target: Human RSK2 (Homo sapiens (Human), UniProt P51812)
# Assay: Human RSK2 assay (Kinase Glo Plus, residual ATP);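 further: recombinant human RSK2 phosphorylating a substrate peptide, 90 min at 28 °C, leftover ATP read by luminescence, RLU scaled between no-kinase background and uninhibited kinase controls, 4-parameter fit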
# Format: biochemical
# Human RSK2, sequence (P51812 whole entry): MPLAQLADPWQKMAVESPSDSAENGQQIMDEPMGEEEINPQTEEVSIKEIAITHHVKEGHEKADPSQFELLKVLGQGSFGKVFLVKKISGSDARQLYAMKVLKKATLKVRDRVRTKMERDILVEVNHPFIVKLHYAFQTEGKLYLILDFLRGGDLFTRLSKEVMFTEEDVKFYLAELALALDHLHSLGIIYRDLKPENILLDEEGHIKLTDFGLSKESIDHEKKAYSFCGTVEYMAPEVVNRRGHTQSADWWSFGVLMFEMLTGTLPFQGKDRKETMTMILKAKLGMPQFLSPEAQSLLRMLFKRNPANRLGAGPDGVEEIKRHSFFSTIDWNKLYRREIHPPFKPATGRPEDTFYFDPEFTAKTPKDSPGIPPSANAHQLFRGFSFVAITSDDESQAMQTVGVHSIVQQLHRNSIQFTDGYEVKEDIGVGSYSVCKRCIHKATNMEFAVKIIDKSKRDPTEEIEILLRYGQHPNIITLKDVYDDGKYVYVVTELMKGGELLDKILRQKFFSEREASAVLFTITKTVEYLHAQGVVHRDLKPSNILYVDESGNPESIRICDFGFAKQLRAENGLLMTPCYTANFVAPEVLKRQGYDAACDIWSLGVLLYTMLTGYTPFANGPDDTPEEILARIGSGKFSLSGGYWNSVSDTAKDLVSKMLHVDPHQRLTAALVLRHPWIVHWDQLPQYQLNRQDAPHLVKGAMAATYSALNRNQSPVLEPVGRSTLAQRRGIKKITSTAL
row,SMILES,IC50 [nM]
1,"O=C(Nc1nc2ccccc2n1CCc1ccccn1)c1ccc2cc3n(c2c1)CCCNC3=O [Example 89, 1-oxo-N-{1-[2-(pyridin-2-yl)ethyl]-1H-benzimidazol-2-yl}-2,3,4,5-tetrahydro-1H-[1,4]diazepino[1,2-a]indole-8-carboxamide]",22
2,"O=C(Nc1cccnc1)c1ccc2cc3n(c2c1)CC(F)(F)CNC3=O [Example 152, 4,4-difluoro-1-oxo-N-(pyridin-3-yl)-2,3,4,5-tetrahydro-1H-[1,4]diazepino[1,2-a]indole-8-carboxamide]",1700
3,"CC1CNC(=O)c2cc3ccc(C(=O)Nc4nc5ccccc5n4C)cc3n21 (stereo not shown) [Example 61, 4-methyl-N-(1-methyl-1H-benzimidazol-2-yl)-1-oxo-1,2,3,4-tetrahydropyrazino[1,2-a]indole-7-carboxamide]",2.2
4,"CC(C)n1c(NC(=O)c2ccc3cc4n(c3c2)[C@@H](C)[C@@H](C)CNC4=O)nc2ccccc21 (relative stereo) [Example 70, cis-4,5-dimethyl-1-oxo-N-[1-(propan-2-yl)-1H-benzimidazol-2-yl]-2,3,4,5-tetrahydro-1H-[1,4]diazepino[1,2-a]indole-8-carboxamide]",1.8
5,"C[C@H]1NC(=O)c2cc3ccc(C(=O)Nc4cccnc4)cc3n2[C@H]1C (relative stereo) [Example 179, Cis-3,4-dimethyl-1-oxo-N-(pyridin-3-yl)-1,2,3,4-tetrahydropyrazino[1,2-a]indole-7-carboxamide]",45
6,"C[C@H]1CCNC(=O)c2cc3ccc(C(=O)Nc4cnn(Cc5ccccc5)c4)cc3n21 [Example 144, (5S)-N-(1-benzyl-1H-pyrazol-4-yl)-5-methyl-1-oxo-2,3,4,5-tetrahydro-1H-[1,4]diazepino[1,2-a]indole-8-carboxamide]",80
7,"CC(C)n1ncc2cc(NC(=O)c3ccc4cc5n(c4c3)[C@@H](C)[C@@H](C)NC5=O)cnc21 (relative stereo) [Example 18, cis-3,4-dimethyl-1-oxo-N-[1-(propan-2-yl)-1H-pyrazolo[3,4-b]pyridin-5-yl]-1,2,3,4-tetrahydropyrazino[1,2-a]indole-7-carboxamide]",8.1
8,"C[C@@H]1NC(=O)c2cc3ccc(C(=O)Nc4nc5ccccc5n4CCCN(C)C)cc3n2[C@@H]1C [Example 139, (3S,4R)-N-{1-[3-(dimethylamino)propyl]-1H-benzimidazol-2-yl}-3,4-dimethyl-1-oxo-1,2,3,4-tetrahydropyrazino[1,2-a]indole-7-carboxamide]",0.18
9,"Cc1cc(NC(=O)c2ccc3cc4n(c3c2)C(C)(C)CNC4=O)no1 [Example 126, 4,4-dimethyl-N-(5-methyl-1,2-oxazol-3-yl)-1-oxo-1,2,3,4-tetrahydropyrazino[1,2-a]indole-7-carboxamide]",36
10,"CS(=O)(=O)c1ccc2c(c1)nc(NC(=O)c1ccc3cc4n(c3c1)CC1(CCNCC1)CNC4=O)n2CC(F)(F)F [Example 239, N-[5-(methylsulfonyl)-1-(2,2,2-trifluoroethyl)-1H-benzimidazol-2-yl]-1-oxo-2,3-dihydro-1H-spiro[1,4-diazepino[1,2-a]indole-4,4′-piperidine]-8-carboxamide]",51
11,"C[C@@H]1CNC(=O)c2cc3ccc(C(=O)Nc4cccnc4)cc3n2[C@H]1C (relative stereo) [Example 151, Trans-4,5-dimethyl-1-oxo-N-(pyridin-3-yl)-2,3,4,5-tetrahydro-1H-[1,4]diazepino[1,2-a]indole-8-carboxamide]",1100
12,"CC(C)n1c(NC(=O)c2ccc3cc4n(c3c2)[C@@H](C)CNC4=O)nc2ccccc21 [Example 69, (4S)-4-methyl-1-oxo-N-[1-(propan-2-yl)-1H-benzimidazol-2-yl]-1,2,3,4-tetrahydropyrazino[1,2-a]indole-7-carboxamide]",21
13,"O=C(Nc1cccnc1)c1ccc2cc3n(c2c1)CC1(CC1)CNC3=O [Example 123, 1′-oxo-N-(pyridin-3-yl)-2′,3′-dihydro-1′H-spiro[cyclopropane-1,4′-[1,4]diazepino[1,2-a]indole]-8′-carboxamide]",430
14,"O=C(Nc1cnn(Cc2ccccc2)c1)c1ccc2cc3n(c2c1)CC1(CCOCC1)CNC3=O [Example 31, N-(1-benzyl-1H-pyrazol-4-yl)-1-oxo-2,2′,3,3′,5′,6′-hexahydro-1H-spiro[1,4-diazepino[1,2-a]indole-4,4′-pyran]-8-carboxamide]",900
15,"C[C@H]1NC(=O)c2cc3ccc(C(=O)Nc4cnn(Cc5ccccc5)c4)cc3n2[C@H]1C (relative stereo) [Example 29, N-(1-benzyl-1H-pyrazol-4-yl)-cis-3,4-dimethyl-1-oxo-1,2,3,4-tetrahydropyrazino[1,2-a]indole-7-carboxamide]",1.9
16,"C[C@H]1CNC(=O)c2cc3ccc(C(=O)Nc4nc5ccccc5n4CCCN(C)C)cc3n2[C@H]1C (relative stereo) [Example 92, N-{1-[3-(dimethylamino)propyl]-1H-benzimidazol-2-yl}-cis-4,5-dimethyl-1-oxo-2,3,4,5-tetrahydro-1H-[1,4]diazepino[1,2-a]indole-8-carboxamide]",2
17,"CC(C)n1c(NC(=O)c2ccc3cc4n(c3c2)[C@H](C)CNC4=O)nc2ccccc21 [Example 68, (4R)-4-methyl-1-oxo-N-[1-(propan-2-yl)-1H-benzimidazol-2-yl]-1,2,3,4-tetrahydropyrazino[1,2-a]indole-7-carboxamide]",1.9
18,"C[C@@H]1NC(=O)c2cc3ccc(C(=O)Nc4cccnc4)cc3n2[C@H]1C (relative stereo) [Example 180, Trans-3,4-dimethyl-1-oxo-N-(pyridin-3-yl)-1,2,3,4-tetrahydropyrazino[1,2-a]indole-7-carboxamide]",895

# The next lines start with the values.
row,IC50 [nM],SMILES
1,96,"CC(C)(C)c1nnc(NC(=O)c2ccc3cc4n(c3c2)CCCNC4=O)s1 [Example 110, N-(5-tert-butyl-1,3,4-thiadiazol-2-yl)-1-oxo-2,3,4,5-tetrahydro-1H-[1,4]diazepino[1,2-a]indole-8-carboxamide]"
2,70,"O=C(Nc1ccc2ccccc2n1)c1ccc2cc3n(c2c1)CCCNC3=O [Example 5, 1-oxo-N-(quinolin-2-yl)-2,3,4,5-tetrahydro-1H-[1,4]diazepino[1,2-a]indole-8-carboxamide]"
3,40,"O=C(Nc1cc(-c2ccccc2)[nH]n1)c1ccc2cc3n(c2c1)CCCNC3=O [Example 218, 1-oxo-N-(5-phenyl-1H-pyrazol-3-yl)-2,3,4,5-tetrahydro-1H-[1,4]diazepino[1,2-a]indole-8-carboxamide]"
4,26,"Cn1c(NC(=O)c2ccc3cc4n(c3c2)CCCNC4=O)nc2cc(Cl)ccc21 [Example 49, N-(5-chloro-1-methyl-1H-benzimidazol-2-yl)-1-oxo-2,3,4,5-tetrahydro-1H-[1,4]diazepino[1,2-a]indole-8-carboxamide]"
5,12,"Cc1cc(NC(=O)c2ccc3cc4n(c3c2)C(C)CCNC4=O)no1 (stereo not shown) [Example 159, 5-methyl-N-(5-methyl-1,2-oxazol-3-yl)-1-oxo-2,3,4,5-tetrahydro-1H-[1,4]diazepino[1,2-a]indole-8-carboxamide]"
6,21,"NC(=O)c1ccccc1NC(=O)c1ccc2cc3n(c2c1)CCCNC3=O [Example 215, N-(2-carbamoylphenyl)-1-oxo-2,3,4,5-tetrahydro-1H-[1,4]diazepino[1,2-a]indole-8-carboxamide]"
7,140,"CC(C)c1cccc(NC(=O)c2ccc3cc4n(c3c2)CCCNC4=O)c1 [Example 145, 1-oxo-N-[3-(propan-2-yl)phenyl]-2,3,4,5-tetrahydro-1H-[1,4]diazepino[1,2-a]indole-8-carboxamide]"
8,39,"O=C(Nc1ccncc1)c1ccc2cc3n(c2c1)CCCNC3=O [Example 156, 1-oxo-N-(pyridin-4-yl)-2,3,4,5-tetrahydro-1H-[1,4]diazepino[1,2-a]indole-8-carboxamide]"
9,39,"O=C(Nc1cc(C2CCCCC2)no1)c1ccc2cc3n(c2c1)CCCNC3=O [Example 209, N-(3-cyclohexyl-1,2-oxazol-5-yl)-1-oxo-2,3,4,5-tetrahydro-1H-[1,4]diazepino[1,2-a]indole-8-carboxamide]"
10,170,"Cn1c(NC(=O)c2ccc3cc4n(c3c2)CCCNC4=O)nc2ccc(Cl)cc21 [Example 52, N-(6-chloro-1-methyl-1H-benzimidazol-2-yl)-1-oxo-2,3,4,5-tetrahydro-1H-[1,4]diazepino[1,2-a]indole-8-carboxamide]"
11,12,"Cc1cc(NC(=O)c2ccc3cc4n(c3c2)[C@H](C)CCNC4=O)no1 [Example 225, (5R)-5-methyl-N-(5-methyl-1,2-oxazol-3-yl)-1-oxo-2,3,4,5-tetrahydro-1H-[1,4]diazepino[1,2-a]indole-8-carboxamide]"
12,48,"CC(C)(C)n1cc(NC(=O)c2ccc3cc4n(c3c2)CCCNC4=O)cn1 [Example 191, N-(1-tert-butyl-1H-pyrazol-4-yl)-1-oxo-2,3,4,5-tetrahydro-1H-[1,4]diazepino[1,2-a]indole-8-carboxamide]"
13,30,"CN(C)CC(C)(C)Cn1c(NC(=O)c2ccc3cc4n(c3c2)CCCNC4=O)nc2ccccc21 [Example 84, N-{1-[3-(dimethylamino)-2,2-dimethylpropyl]-1H-benzimidazol-2-yl}-1-oxo-2,3,4,5-tetrahydro-1H-[1,4]diazepino[1,2-a]indole-8-carboxamide]"
14,25,"O=C(Nc1nc2ccccc2n1C1CCCC1)c1ccc2cc3n(c2c1)CCCNC3=O [Example 75, N-(1-cyclopentyl-1H-benzimidazol-2-yl)-1-oxo-2,3,4,5-tetrahydro-1H-[1,4]diazepino[1,2-a]indole-8-carboxamide]"
15,9,"Cn1cc(NC(=O)c2ccc3cc4n(c3c2)CCCNC4=O)nc1C(=O)NC1CCCC1 [Example 232, N-[2-(cyclopentylcarbamoyl)-1-methyl-1H-imidazol-4-yl]-1-oxo-2,3,4,5-tetrahydro-1H-[1,4]diazepino[1,2-a]indole-8-carboxamide]"
16,3300,"Cc1noc(NC(=O)c2ccc3cc4n(c3c2)CCCNC4=O)c1Cl [Example 194, N-(4-chloro-3-methyl-1,2-oxazol-5-yl)-1-oxo-2,3,4,5-tetrahydro-1H-[1,4]diazepino[1,2-a]indole-8-carboxamide]"
